Legend:
[1] = system: blood uric acid; experiment: Multiple dose study of TS dispersion, 14 days (Example 6): blood uric acid level; assay type: in vivo, healthy subjects and elderly subjects
Procedure: Example 3 - Preparation of dispersions for oral administration: (a) Using the tosylate salt of 4-r2-(5-Amino-1 H-pyrazol-4-yl)-4-chlorophenoxyl-5- chloro-2-fluoro-N-(1,3-thiazol-4-yl)benzenesulfonamide: Methylcellulose vehicle (0.5% w/v) was prepared as follows. Water for irrigation (600 ml.) was heated in a beaker to between 80°C and 90°C. Methylcellulose (5 g) powder was added, with stirring, until the powder had fully dispersed. The dispersion was then transferred into an ice bath and cooled rapidly whilst adding chilled water for irrigation (400 ml.) to give a clear solution. The dispersion for oral administration was prepared by weighing the required quantity of 4-[2-(5-amino-1 H-pyrazol-4-yl)-4-chlorophenoxy]-5-chloro-2-fluoro-N- (1,3-thiazol-4-yl)benzenesulfonamide tosylate (from 10mg to 2400mg) into an appropriately sized glass amber dosing bottle and adding a volume of vehicle (0.5% (w/v) methylcellulose). The volume of vehicle added was dependant on dose: 15 ml. for doses of drug in the range 10 mg to < 30 mg; and 50 ml. for doses of drug in the range 30 mg to 2400 mg, so that the drug concentration was in the range 0.6 to 50 mg/mL. The dispersion was stored at 2 to 8°C and administered within 72 hours directly from the dosing containers. After administration the glass dosing bottle was rinsed with two approximate equal aliquots of drinking water such that the total volume administered, including dosing volume, was 240 ml_. (b) Using the SDD of 4-[2-(5-Amino-1 H-pyrazol-4-yl)-4-chlorophenoxyl-5-chloro-2- fluoro-N-(1,3-thiazol-4-yl)benzenesulfonamide: Methylcellulose vehicle 0.5% (w/v) was prepared using the procedure set out in Example 3(a) above. The dispersion for oral administration was prepared by weighing the required quantity of 4-[2-(5-amino-1 H-pyrazol-4-yl)-4-chlorophenoxy]-5-chloro-2-fluoro-N- (1,3-thiazol-4-yl)benzenesulfonamide SDD into an appropriately sized glass amber dosing bottle and adding a volume of vehicle (0.5% (w/v) Methylcellulose). The volume of vehicle added was dependent on dose: 20 ml. to 100 ml. over the dose range 10 mg to 2400 mg, so that the drug concentration was in the range 0.6 to 50 mg/mL. The dispersion was stored at 2 to 8°C and administered within 72 hours directly from the dosing containers. After administration the glass dosing bottle was rinsed with two approximate equal aliquots of drinking water such that the total volume administered, including dosing volume, was 240 ml_. […] Uric acid measurements were performed using a commercial colorimetric assay kit (Beckman Coulter). […]

[2] = system: uric acid in urine; experiment: Multiple dose study of TS dispersion, 14 days (Example 6): uric acid excretion in urine; assay type: in vivo, healthy subjects and elderly subjects; conditions: 24 hour urine, Days 1, 6, 14, 16; returns to baseline by Day 16
Procedure: Example 6 - Multiple dose study: a double-blind, randomized, placebo-controlled, study in healthy subjects and elderly subjects: Multiple oral doses of 4-[2-(5-amino-1 H-pyrazol-4-yl)-4-chlorophenoxy]-5-chloro-2-fluoro-N-(1,3-thiazol-4-yl)benzenesulfonamide TS dispersion for oral administration, and placebo, were investigated for 14 days, as follows: • healthy subjects, 300 mg twice daily (BID,) • healthy subjects, 450 mg BI D, and • elderly subjects, 300 mg BID.
Subjects were fasted overnight prior to the morning doses and for at least 2 hours prior to the evening doses. Food was withheld for at least 2 hours postdose. A total of 49 subjects were enrolled in the study of which 39 received 4-[2-(5-amino-1 H-pyrazol-4-yl)-4-chlorophenoxy]-5-chloro-2-fluoro-N-(1,3-thiazol-4-yl)benzenesulfonamide TS and 10 received placebo. […]
Concentrations of uric acid in blood decreased following dosing with 4-[2-(5-amino-1 H-pyrazol-4-yl)-4-chlorophenoxy]-5-chloro-2-fluoro-N-(1,3-thiazol-4-yl)benzenesulfonamide. All subjects had blood uric acid values above the LLN on Day 1. […] Uric acid was also measured in urine collected over 24 hours prior to dosing on Day 1, and then on Days 6, 14 and 16. The percent excreted fraction of uric acid in urine was calculated and analyzed with a linear mixed effects model.

[3] = system: genotype lb HCV replicon (Huh-7); experiment: microbe, parasite or virus in culture; conditions: Hepatitis C virus, Huh-7, 72 h
Procedure: The protein was expressed with an 18 amino acid C-terminal truncation to enhance the solubility. The E. coli competent cell line BL21(DE3) was used for expression of the protein. […] The cultures were cooled to 20 °C and induced with 1 mM IPTG. […] After addition of the lysis buffer, frozen cell pellets were resuspended using a tissue homogenizer. To reduce the viscosity of the sample, aliquots of the lysate were sonicated on ice using a microtip attached to a Branson sonicator. […] The protein was purified using two sequential chromatography steps: Heparin sepharose CL-6B and polyU sepharose 4B. […] Each column was eluted with a NaCl gradient which varied in length from 5-50 column volumes depending on the column type. […] The enzyme was aliquoted and stored at -80 °C. […] Unbound primer was removed after centrifugation. […] After incubating for at least 15 minutes, plates were read on an Amersham LEADseeker multimodality imaging system. IC50 values for compounds were determined using ten different [I]. […] Cell lines. […] These cells were maintained in Dulbecco's modified Eagle medium (DMEM) containing 10% FBS, 100 U/mL penicillin/streptomycin and 1.0 mg/mL G418. […]

SMILES | day on which median blood uric acid concentrations fell below LLN ([1]; 450 mg BID) | median blood uric acid concentration relative to LLN ([1]; all cohorts (300 mg and 450 mg BID), Day 6) | Concentrations of uric acid in blood ([1]; following dosing, given as TS dispersion 300 mg or 450 mg BID) | time after cessation of dosing until blood uric acid returned to above the LLN for all subjects ([1]; i.e. by Day 16) | excreted fraction of uric acid in urine [2] | EC50 [3]
Nc1[nH]ncc1-c1cc(Cl)ccc1Oc1cc(F)c(S(=O)(=O)Nc2cscn2)cc1Cl [4-[2-(5-amino-1H-pyrazol-4-yl)-4-chlorophenoxy]-5-chloro-2-fluoro-N-(1,3-thiazol-4-yl)benzenesulfonamide] | Day 3 | below the LLN | decreased | ≤ 2 days | increases during dosing | 
CN1CC2CCC(C1)N2C(=O)[C@]12C[C@H]1c1cc(F)ccc1-c1c(C3CCCCC3)c3ccc(C(=O)NS(=O)(=O)C4(C)CC4)cc3n1C2 [Compound 2, (1aR,12bS)-8-cyclohexyl-11-fluoro-N-((1-methylcyclopropyl)sulfonyl)-1a-((3-methyl-3,8-diazabicyclo[3.2.1]oct-8-yl)carbonyl)-1,1a,2,12b-tetrahydrocyclopropa[d]indolo[2,1-a][2]benzazepine-5-carboxamide] |  |  |  |  |  | 7 nM

From EP2792360A1, “(1aR,12bS)-8-cyclohexyl-11-fluoro-N-((1-methylcyclopropyl)sulfonyl)-1a-((3-methyl-3,8-diazabicyclo[3.2.1]oct-8-yl)carbonyl)-1,1a,2,2b-tetrahydrocyclopropa[d]indolo[2,1-a][2]benzazepine-5-carboxamide for use in treating HCV” (IP Gesellschaft für Management mbH, priority 2013, dated 2014)
